Data published in ChEMBL document CHEMBL1201862, “PubChem BioAssay data set” (2004).
Activity calls are given as the source filed them.

How the values were obtained:
[1] = biological target: DNA dC->dU-editing enzyme APOBEC-3G (Homo sapiens, UniProt Q9HC16); assay type: functional;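 further: Dose-response counterscreen measuring inhibition of APOBEC3G DNA deaminase activity, run while confirming APOBEC3A inhibitors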
[2] = biological target: DNA dC->dU-editing enzyme APOBEC-3A (Homo sapiens, UniProt P31941); assay: Dose Response confirmation of small molecule APOBEC3A DNA Deaminase Inhibitors via a fluorescence-based single-stranded DNA deaminase assay. [Related pubchem assays (depositor defined):AID493011, AID493024]; assay type: functional
Chain of DNA dC->dU-editing enzyme APOBEC-3A (P31941 whole entry): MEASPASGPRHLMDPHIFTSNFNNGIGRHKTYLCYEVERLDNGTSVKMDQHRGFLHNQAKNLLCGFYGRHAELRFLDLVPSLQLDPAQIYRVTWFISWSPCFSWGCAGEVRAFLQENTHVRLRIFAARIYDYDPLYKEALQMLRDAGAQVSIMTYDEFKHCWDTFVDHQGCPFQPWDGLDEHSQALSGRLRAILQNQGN

Aminopeptidase N = biological target: T1, Aminopeptidase N (Plasmodium falciparum FcB1/Columbia, UniProt O96935); assay: P. falciparum M1AAP inhibitors, biochemical, fluorogenic H-Leu-NHMec substrate, 1536-well (AID 1445); design: species or system Plasmodium falciparum 3D7, 3D7
T1 sequence (O96935 whole entry): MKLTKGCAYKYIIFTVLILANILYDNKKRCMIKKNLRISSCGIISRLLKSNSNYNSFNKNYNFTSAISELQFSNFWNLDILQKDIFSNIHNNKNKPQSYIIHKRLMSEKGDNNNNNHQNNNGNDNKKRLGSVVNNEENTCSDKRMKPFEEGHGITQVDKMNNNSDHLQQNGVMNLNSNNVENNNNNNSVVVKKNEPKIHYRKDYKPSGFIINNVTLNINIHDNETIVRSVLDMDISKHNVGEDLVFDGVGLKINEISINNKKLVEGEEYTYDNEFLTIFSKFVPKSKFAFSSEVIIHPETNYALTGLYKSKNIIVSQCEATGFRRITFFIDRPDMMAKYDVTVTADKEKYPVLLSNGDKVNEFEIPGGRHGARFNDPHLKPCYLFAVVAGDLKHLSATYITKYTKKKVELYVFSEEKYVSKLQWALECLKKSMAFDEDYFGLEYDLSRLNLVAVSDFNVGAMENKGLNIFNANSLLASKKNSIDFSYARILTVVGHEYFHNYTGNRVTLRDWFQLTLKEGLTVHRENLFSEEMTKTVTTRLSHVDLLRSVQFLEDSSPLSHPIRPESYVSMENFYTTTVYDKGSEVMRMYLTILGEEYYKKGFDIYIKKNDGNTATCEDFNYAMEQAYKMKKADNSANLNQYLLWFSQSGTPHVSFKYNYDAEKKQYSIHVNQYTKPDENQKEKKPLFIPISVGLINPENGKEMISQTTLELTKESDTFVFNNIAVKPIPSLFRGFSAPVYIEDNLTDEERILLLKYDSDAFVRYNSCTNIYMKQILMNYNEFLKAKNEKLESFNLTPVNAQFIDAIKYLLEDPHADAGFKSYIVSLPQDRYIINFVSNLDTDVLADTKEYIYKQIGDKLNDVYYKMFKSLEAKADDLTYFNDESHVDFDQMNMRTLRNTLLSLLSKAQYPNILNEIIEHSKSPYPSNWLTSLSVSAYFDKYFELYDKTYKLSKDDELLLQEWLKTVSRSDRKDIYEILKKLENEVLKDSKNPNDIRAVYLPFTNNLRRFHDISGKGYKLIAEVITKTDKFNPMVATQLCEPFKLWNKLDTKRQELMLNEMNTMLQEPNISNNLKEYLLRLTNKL

Protein RecA = biological target: T2, Protein RecA (Mycobacterium tuberculosis, UniProt P9WHJ3); assay: Fluorescence Cell-Free Homogeneous Dose Retest to Identify Inhibitors of RecA-Intein Splicing Activity. [Related pubchem assays (depositor defined):AID2097, AID2223, AID489010, AID492950]; assay type: functional
T2 sequence (P9WHJ3 whole entry): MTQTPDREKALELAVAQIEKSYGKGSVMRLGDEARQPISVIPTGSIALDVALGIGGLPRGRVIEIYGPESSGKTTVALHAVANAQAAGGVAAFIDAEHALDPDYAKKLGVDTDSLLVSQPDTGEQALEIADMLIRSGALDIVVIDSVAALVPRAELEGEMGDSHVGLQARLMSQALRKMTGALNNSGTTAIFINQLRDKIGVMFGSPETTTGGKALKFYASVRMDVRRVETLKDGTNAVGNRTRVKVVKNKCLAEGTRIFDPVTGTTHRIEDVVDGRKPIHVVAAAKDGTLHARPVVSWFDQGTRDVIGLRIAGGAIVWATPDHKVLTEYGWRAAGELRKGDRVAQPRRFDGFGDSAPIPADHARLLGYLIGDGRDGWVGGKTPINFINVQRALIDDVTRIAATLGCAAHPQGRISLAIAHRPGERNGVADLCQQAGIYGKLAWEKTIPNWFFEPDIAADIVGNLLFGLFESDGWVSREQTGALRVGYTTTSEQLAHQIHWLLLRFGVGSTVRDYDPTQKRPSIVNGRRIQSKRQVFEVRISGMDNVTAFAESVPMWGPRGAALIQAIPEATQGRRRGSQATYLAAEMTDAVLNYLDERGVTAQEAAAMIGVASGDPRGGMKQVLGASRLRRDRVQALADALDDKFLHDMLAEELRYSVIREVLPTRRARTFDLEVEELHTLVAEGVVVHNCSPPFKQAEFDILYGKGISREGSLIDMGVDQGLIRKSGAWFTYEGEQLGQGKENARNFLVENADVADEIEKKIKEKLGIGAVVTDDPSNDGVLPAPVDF

[3] = biological target: T3, Histone-lysine N-methyltransferase NSD2 (Homo sapiens, UniProt O96028); assay type: biochemical
T3 sequence (O96028 whole entry): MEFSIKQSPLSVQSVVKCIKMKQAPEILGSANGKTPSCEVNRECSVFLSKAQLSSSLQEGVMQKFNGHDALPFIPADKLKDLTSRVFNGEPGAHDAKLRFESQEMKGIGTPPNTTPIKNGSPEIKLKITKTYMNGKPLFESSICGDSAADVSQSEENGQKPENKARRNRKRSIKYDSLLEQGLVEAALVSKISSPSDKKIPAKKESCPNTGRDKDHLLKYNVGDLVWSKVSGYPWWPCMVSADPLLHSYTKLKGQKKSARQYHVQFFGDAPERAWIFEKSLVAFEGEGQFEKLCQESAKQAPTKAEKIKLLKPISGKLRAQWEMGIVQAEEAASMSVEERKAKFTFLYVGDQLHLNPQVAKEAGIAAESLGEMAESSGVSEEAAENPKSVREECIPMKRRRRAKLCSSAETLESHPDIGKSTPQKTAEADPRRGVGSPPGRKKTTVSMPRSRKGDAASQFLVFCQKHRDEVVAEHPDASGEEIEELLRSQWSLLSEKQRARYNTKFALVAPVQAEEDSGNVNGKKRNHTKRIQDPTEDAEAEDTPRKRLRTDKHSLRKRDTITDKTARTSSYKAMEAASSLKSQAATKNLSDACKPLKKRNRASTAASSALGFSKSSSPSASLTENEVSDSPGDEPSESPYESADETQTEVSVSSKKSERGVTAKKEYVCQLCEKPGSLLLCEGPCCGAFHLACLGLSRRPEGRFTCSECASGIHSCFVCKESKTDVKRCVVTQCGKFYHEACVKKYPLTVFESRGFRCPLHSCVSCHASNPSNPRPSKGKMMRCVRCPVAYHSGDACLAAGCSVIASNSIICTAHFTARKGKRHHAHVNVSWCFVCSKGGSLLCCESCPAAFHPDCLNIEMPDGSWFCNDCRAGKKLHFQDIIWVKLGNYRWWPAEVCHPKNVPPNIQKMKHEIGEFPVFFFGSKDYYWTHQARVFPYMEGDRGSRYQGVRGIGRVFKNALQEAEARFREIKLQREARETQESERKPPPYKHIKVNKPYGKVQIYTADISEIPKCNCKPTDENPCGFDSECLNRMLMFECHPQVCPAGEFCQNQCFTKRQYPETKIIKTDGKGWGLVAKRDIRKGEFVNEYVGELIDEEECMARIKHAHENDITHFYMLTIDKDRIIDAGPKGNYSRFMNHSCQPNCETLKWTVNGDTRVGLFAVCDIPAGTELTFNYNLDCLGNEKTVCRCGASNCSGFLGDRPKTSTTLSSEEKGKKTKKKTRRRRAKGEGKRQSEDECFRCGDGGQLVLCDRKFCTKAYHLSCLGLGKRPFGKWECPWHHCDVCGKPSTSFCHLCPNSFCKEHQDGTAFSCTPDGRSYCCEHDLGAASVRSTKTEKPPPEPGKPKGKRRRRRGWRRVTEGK

[4] = microbe, parasite or virus in culture; assay type: functional; conditions: Mycobacterium tuberculosis
[5] = HepG2 cell cytotoxicity, dose response, cytotoxicity control for Shn3 inhibitor project, CellTiter-Glo, cherry-picked (AID 624134); assay type: functional, cell-based
[6] = test system: Streptococcus sp. 'group A'; assay: growth inhibition of control SK(-) GAS strain, dose response, counter-screen for streptokinase expression inhibitor project, luminescence, kanamycin, BacTiterGlo, confirmation (AID 1900); assay type: functional, organism-based
[7] = inhibitors of firefly luciferase expression or activity, dose response, H4 neuroglioma cells, luminescence (AID 1990); assay type: functional, cell-based
INS1 = assay: beta cell apoptosis inhibitors, cytokine rescue, dose response, luminescence, retest (AID 449756); assay type: functional, cell-based; conditions: Rattus norvegicus;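 further: cell death triggered by IL-1 beta plus TNF-alpha plus IFN-gamma mixture; protective hits raise ATP signal compared with cytokine alone wells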
Streptococcus = assay: Group A Streptococcus viability loss, dose response, counter-screen for streptokinase expression inhibitor project, luminescence, BacTiterGlo (AID 1915); assay type: functional, organism-based;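 further: potency for reduction of bacterial viability or growth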
[8] = control 3'UTR Renilla luciferase suppression, dose response, counter-screen for Shn3 inhibitor project, cell-based, Clone20-Shn3RL, cherry-picked (AID 624133); assay type: functional
[9] = Shn3 3'UTR reporter inhibitors, dose response, cell-based, Clone20 osteoblasts, firefly luciferase, cherry-picked (AID 624132); assay type: functional;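 further: firefly luciferase luminescence from reporter carrying the Shn3 3'UTR in osteoblasts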
[10] = inhibitors of SNCA 5'UTR-driven reporter translation, confirmation, H4 neuroglioma cells, luminescence (AID 1988); assay type: functional, cell-based
[11] = growth suppression of PTEN-null colon cells, dose response, cell-based, HCT116 PTEN knockout (AID 1047); assay type: functional;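 further: HCT116 colon tumor cells with PTEN knocked out; cells exposed to compound for 60 hours before readout; potency for loss of cell viability measured by luminescence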
[12] = biological target: Induced myeloid leukemia cell differentiation protein Mcl-1 (Homo sapiens, UniProt Q07820); assay type: functional
Chain of Induced myeloid leukemia cell differentiation protein Mcl-1 (Q07820 whole entry): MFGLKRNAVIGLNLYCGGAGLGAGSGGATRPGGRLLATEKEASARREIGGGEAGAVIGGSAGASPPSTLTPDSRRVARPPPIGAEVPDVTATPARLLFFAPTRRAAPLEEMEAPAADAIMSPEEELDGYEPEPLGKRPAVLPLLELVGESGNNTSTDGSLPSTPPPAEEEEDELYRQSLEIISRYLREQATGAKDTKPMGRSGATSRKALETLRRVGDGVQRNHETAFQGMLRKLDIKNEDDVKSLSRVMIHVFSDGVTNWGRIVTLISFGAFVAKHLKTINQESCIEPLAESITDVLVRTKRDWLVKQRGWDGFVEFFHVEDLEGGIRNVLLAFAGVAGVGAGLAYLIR

Paired box protein Pax-8 = Paired box protein Pax-8 (Homo sapiens, UniProt Q06710); assay: inhibitors of PAX8-driven TPO luciferase reporter, dose response, RMG-I cells, cherry-pick (AID 687027); assay type: functional, cell-based;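 further: luciferase reporter driven by Pax8 target thyroperoxidase promoter measured by SteadyGlo luminescence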
Chain of Paired box protein Pax-8 (Q06710 whole entry): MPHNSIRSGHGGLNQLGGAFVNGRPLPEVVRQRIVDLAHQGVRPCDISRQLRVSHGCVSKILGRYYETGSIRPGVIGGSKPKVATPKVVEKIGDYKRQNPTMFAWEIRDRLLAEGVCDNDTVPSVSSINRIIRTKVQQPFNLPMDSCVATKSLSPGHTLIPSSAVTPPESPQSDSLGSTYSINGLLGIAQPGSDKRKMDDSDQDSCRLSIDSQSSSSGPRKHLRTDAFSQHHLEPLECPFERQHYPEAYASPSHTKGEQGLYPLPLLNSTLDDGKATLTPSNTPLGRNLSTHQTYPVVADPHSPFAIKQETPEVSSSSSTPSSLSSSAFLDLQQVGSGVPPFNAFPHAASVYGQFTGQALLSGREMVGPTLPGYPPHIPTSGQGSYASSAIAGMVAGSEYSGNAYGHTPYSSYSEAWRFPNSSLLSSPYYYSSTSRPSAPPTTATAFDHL

[13] = Luminescence Cell-Based Dose Response HTS to Identify Inhibitors of 5'UTR Stem-Loop Driven Prion Protein mRNA Translation in H4 Neuroglioblastoma Cells. [Related pubchem assays: 1827 (Project Summary), 1813 (Primary HTS)]; assay type: functional
Streptokinase A = biological target: T4, Streptokinase A (Streptococcus pyogenes serotype M1, UniProt P10520); assay: S. pyogenes streptokinase expression inhibitors, potency, dose response, plasminogen activation absorbance, OD405 (AID 1914); assay type: functional, Streptococcus pyogenes M1 GAS;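 further: secreted streptokinase activity via plasminogen activation per viability signal from cell pellet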
T4 sequence (P10520 whole entry): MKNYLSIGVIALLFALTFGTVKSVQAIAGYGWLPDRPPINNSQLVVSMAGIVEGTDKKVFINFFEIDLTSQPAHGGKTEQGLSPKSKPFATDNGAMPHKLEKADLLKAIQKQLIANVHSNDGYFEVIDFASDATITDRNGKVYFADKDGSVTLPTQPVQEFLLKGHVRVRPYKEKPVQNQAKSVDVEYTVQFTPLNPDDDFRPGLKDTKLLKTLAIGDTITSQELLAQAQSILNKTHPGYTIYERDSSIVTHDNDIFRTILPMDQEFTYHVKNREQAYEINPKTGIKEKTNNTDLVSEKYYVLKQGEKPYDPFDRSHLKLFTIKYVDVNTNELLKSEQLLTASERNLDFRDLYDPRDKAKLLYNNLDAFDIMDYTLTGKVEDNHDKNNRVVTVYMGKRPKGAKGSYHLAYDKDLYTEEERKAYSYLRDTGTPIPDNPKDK

[14] = growth suppression of beta-catenin-knockout colon cells, dose response, cell-based, HCT116, human colon tumor (AID 1045); assay type: functional;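 further: HCT116 colon tumor cells with beta catenin knocked out; cells exposed to compound for 60 hours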
[15] = cytotoxicity toward NIH3T3 fibroblasts, dose response, counter-screen, cell-based, ATP luminescence, mouse fibroblasts (AID 2010); assay type: functional;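 further: cells exposed to compound for about 90 hours before reading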
[16] = inhibitors of intracellular T. cruzi replication, confirmation, NIH3T3 host cells, beta-gal luminescence (AID 2044); assay type: functional, cell-based;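 further: intracellular parasites grown in NIH/3T3 mouse fibroblasts as host cells; luminescent beta-galactosidase reporter signal from transgenic T. cruzi replicating inside host cells; inhibitors lower the luminescence signal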

Chain of DNA dC->dU-editing enzyme APOBEC-3G (Q9HC16 whole entry): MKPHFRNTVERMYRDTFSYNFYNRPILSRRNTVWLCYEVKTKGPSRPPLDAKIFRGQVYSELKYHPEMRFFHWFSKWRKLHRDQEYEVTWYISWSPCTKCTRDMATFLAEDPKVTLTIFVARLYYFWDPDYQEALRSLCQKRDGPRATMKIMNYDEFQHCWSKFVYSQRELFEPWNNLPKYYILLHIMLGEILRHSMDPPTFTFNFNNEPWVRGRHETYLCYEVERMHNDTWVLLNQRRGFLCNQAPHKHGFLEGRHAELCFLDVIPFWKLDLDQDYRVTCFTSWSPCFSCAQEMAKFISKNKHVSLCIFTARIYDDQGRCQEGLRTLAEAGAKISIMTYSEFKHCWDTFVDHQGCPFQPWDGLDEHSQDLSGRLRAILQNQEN

## CCOC(=O)C1CCN(S(=O)(=O)c2ccc3c(c2)CC(=O)N3C)CC1
[1]
  IC50: 4 µM (active)
[2]
  IC50: 2.81 µM (active)

## COC(=O)c1ccc(Cl)c(NS(=O)(=O)c2ccc3c(c2)OCCO3)c1
Aminopeptidase N
  IC50: 29.7 µM (active)

## O=C(Nc1ccc(NC(=O)c2ccc(Cl)cc2Cl)cc1)c1cccs1
[1]
  IC50: 11.8 µM (active)
[2]
  IC50: 10.6 µM (active)

## C=CCn1c(NC(=O)c2ccc(Br)o2)c(S(=O)(=O)c2ccccc2)c2nc3ccccc3nc21
Protein RecA
  EC50: > 380 µM (inconclusive)
Aminopeptidase N
  IC50: 17.4 µM (active)
[3]
  AC50: 10.6 µM (active)

## Nc1c(C(=O)O)cnc2c(-c3ccc(Cl)cc3)cnn12
[4]
  CC50: 24.6 µM (active)
Aminopeptidase N
  IC50: 42.4 µM (active)

## O=C(Nc1ccc([N+](=O)[O-])cc1)Nc1nc(-c2ccc(Cl)s2)cs1
[5]
  AC50: 4.82 µM (active)
[6]
  EC50: 6.16 µM (active)
[7]
  EC50: 8.65 µM (active)
INS1
  AC50: 1.54 µM (active)
Streptococcus
  EC50: 81.8 µM (active)
[8]
  AC50: 3.04 µM (active)
[9]
  AC50: 3.19 µM (active)
[10]
  EC50: 8.39 µM (active)
[11]
  EC50: 0.8 µM (active)
[12]
  IC50: 5.32 µM (active)
Paired box protein Pax-8
  AC50: 2.42 µM (active)
[13]
  EC50: 8.31 µM (active)
Streptokinase A
  EC50: 44.8 µM (inconclusive)
[14]
  EC50: 0.991 µM (active)

## CCN1CCN(c2ccc(S(=O)(=O)N3CCCCC3)cc2NC(=O)c2cccc(C(F)(F)F)c2)CC1
[1]
  IC50: 13.2 µM (active)
[15]
  EC50: > 30 µM (not active)
[16]
  EC50: 1.09 µM (active)
[2]
  IC50: 7.71 µM (active)

## COC(=O)C(C)N1C(=O)S/C(=C\c2ccc(-c3ccc(C(=O)O)cc3C)o2)C1=O (centres undefined)
[1]
  IC50: 4.97 µM (active)
[2]
  IC50: 5.66 µM (active)

## CC[n+]1c(C)n(Cc2ccccc2)c2ccc(C(=O)OC)cc21
[1]
  IC50: 3.62 µM (active)
[2]
  IC50: 2.88 µM (active)

## C[n+]1cccc(C(=O)N/N=C/c2ccc3c(c2)OCO3)c1
[1]
  IC50: 8.99 µM (active)
[2]
  IC50: 3.15 µM (active)
